Our source for the IC50 values is patent US20260258016A1, “SUBSTITUTED PYRIDAZINE-3-CARBOXAMIDE COMPOUND SERVING AS TYK2 INHIBITOR” (Guangzhou Fermion Technology Co., Ltd., priority 2022, published 2026).

Experiment [1] has as its system IL-2-induced STAT5 phosphorylation (JAK1/3) in CD3+ cells of human PBMC. Description: IL-2-induced STAT5 phosphorylation (JAK1/3) in CD3+ cell subpopulations in human PBMC, flow cytometry. Type of experiment: cell-based. The note with it: IL-2 stimulation 20 min, read-out: IL-2-induced CD3+ pSTAT5 (JAK1/3) in hPBMC (IC50). As for the experimental part:
Purpose: The purpose of this test case was to test the inhibitory effect of the compound on IL-2-induced STAT5 phosphorylation using protein phosphorylation flow cytometric analysis technology.
Human PBMC cells were pre-incubated with the compounds, STAT5 was induced to phosphorylate under appropriate stimulation conditions, and corresponding cell subpopulations and targets were stained. Flow cytometry was used to read cell data and analyze the strength of phosphorylated antibody signals under different compound concentrations. PBMCs were resuspended and dispensed into a 96-well plate, 62.5 μL/well. 3.5 μL of 20× compound working solutions were added and incubated at 37° C. for 30 minutes. 5 μL of PE mouse anti-human CD3 (BD) was added and incubated for 30 min at 37° C. in the dark. 4 μL of 20×IL-2 (R&D) was added to each well and incubated at 37° C. in the dark for 20 minutes. All cells in the 96-well plate were transferred to a deep-well plate, 400 μL of a fixation working solution (Biolegend) was added to each well, and incubated at room temperature in the dark for 20 minutes. The cells were washed twice with PBS, and 400 μL of Perm Buffer III (BD) was added and incubated at 4° C. in the dark for 40 minutes. The cells were washed twice with PBS, and 100 μL of a STAT5 pY694 antibody working solution (BD) was added and incubated at room temperature for 40 minutes. After washing once with PBS, the cells were resuspended in 200 μL of a staining buffer and transferred to a sample plate. The antibody fluorescence intensity was analyzed using FlowJo software, and the IC50 of the compound was calculated using XL-Fit software.
(A flow cytometer gives signals particle by particle.)

Experiment [2] addresses TYK2 JH2 pseudokinase (Homo sapiens, UniProt P29597). Description: In vitro TYK2 JH2 enzyme binding assay (TR-FRET). (TR-FRET usually uses a lanthanide donor and a delayed reading to cut background.)
Description: Purpose: The purpose of this test example was to use a fluorescence resonance energy transfer (TR-FRET) method to test the binding effect of the compound on a TYK2 JH2 pseudokinase, and then evaluate the affinity of the compound for TYK2 JH2.
DMSO-dissolved compounds were used to prepare 10 mM stock solutions, then 200× compounds having different gradient concentrations were prepared in a compound dilution plate, and transferred to an Echo plate. 75 nL of the compounds were transferred from the Echo plate to a 384-well assay plate using an Echo instrument, and 5 μL of 3×TYK2 JH2 pseudokinase (Bioduro), 5 μL of 3×Tb antibody (Cisbio) and 5 μL of 3×TRACER (Bioduro) were added to the 384-well assay plate, centrifuged for 30 seconds, and incubated at room temperature for 60 minutes.
Experiment [3] addresses T1, JAK1 JH1 (Homo sapiens, UniProt P23458).
T1 construct: 5 μL/well of 2×JAK1 JH1/JAK2 JH1/JAK3 JH1/TYK2 JH1 kinase solutions
In words: JAK1 JH1 kinase inhibition (HTRF). It is filed as biochemical. To be noted: read-out: Inhibition on kinase activity (IC50, μM) JAKI JHI.
Description: Purpose: The purpose of this test example was to examine the inhibitory effect of the compound on the kinase activity of JAK1 JH1/JAK2 JH1/JAK3 JH1/TYK2 JH1 using homogeneous time-resolved fluorescence resonance energy transfer (HTRF) technology.
100 nL/well of compound working solutions were transferred to a 384-well assay plate using an automated micropipetting system, 5 μL/well of 2×JAK1 JH1/JAK2 JH1/JAK3 JH1/TYK2 JH1 kinase solutions or assay buffer were added, uniformly mixed by centrifugation, and incubated at the room temperature 25° C. for 15 minutes. After the completion of incubation, 5 μL of a mixed solution containing a 2×TK-SUB-biotin substrate and ATP was added to each well, uniformly mixed by centrifugation, and incubated at 25° C. for 45 minutes (JAK1/JAK2) or 60 minutes (JAK3/TYK2). After completion of incubation, 10 μL of an assay mixture (TK Antibody-EU and Streptavidin-XL mixture) was added to each well, uniformly mixed by centrifugation, and incubated at 25° C. for 60 minutes (JAK1/JAK2) or 120 minutes (JAK3/TYK2).

The target in experiment [4] is T2, JAK2 JH1 (Homo sapiens, UniProt O60674).
T2 construct: 5 μL/well of 2×JAK1 JH1/JAK2 JH1/JAK3 JH1/TYK2 JH1 kinase solutions
T2 sequence (O60674 849-1124 limits assumed): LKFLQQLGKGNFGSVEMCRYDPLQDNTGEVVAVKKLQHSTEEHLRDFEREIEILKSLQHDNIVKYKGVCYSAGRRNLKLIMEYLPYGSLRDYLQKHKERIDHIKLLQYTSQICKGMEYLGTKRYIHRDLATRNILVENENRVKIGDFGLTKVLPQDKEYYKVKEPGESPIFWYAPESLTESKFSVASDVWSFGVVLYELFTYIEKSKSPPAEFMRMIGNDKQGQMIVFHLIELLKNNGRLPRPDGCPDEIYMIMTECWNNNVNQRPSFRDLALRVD
Description: JAK2 JH1 kinase inhibition (HTRF). Type of experiment: biochemical. The note with it: read-out: Inhibition on kinase activity (IC50, μM) JAK2 JHI. As for the experimental part:
(§1) After the completion of incubation, 5 μL of a mixed solution containing a 2×TK-SUB-biotin substrate and ATP was added to each well, uniformly mixed by centrifugation, and incubated at 25° C. for 45 minutes (JAK1/JAK2) or 60 minutes (JAK3/TYK2). After completion of incubation, 10 μL of an assay mixture (TK Antibody-EU and Streptavidin-XL mixture) was added to each well, uniformly mixed by centrifugation, and incubated at 25° C. for 60 minutes (JAK1/JAK2) or 120 minutes (JAK3/TYK2). After completion of incubation, the solutions were transferred to a 4° C. freezer for incubation overnight, and fluorescence values were read on an Envision 2104 Multilabel Reader, and the IC50 of the compound was calculated using XL-Fit software.

Experiment [5] deals with T3, JAK3 JH1 (Homo sapiens, UniProt P52333).
T3 construct: 5 μL/well of 2×JAK1 JH1/JAK2 JH1/JAK3 JH1/TYK2 JH1 kinase solutions
T3 sequence (P52333 822-1111 limits assumed): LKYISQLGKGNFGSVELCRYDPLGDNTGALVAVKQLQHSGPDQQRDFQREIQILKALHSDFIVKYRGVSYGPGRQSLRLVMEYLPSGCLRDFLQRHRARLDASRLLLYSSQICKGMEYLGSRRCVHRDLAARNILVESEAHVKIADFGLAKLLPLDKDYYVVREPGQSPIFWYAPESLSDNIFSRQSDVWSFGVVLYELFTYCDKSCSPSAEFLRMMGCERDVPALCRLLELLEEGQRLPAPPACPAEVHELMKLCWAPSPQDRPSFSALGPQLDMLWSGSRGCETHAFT
In words: JAK3 JH1 kinase inhibition (HTRF). It is filed as biochemical. To be noted: read-out: Inhibition on kinase activity (IC50, μM) JAK3 JHI. On the procedure:
as §1

Experiment [6] has as its target T4, TYK2 JH1 (Homo sapiens, UniProt P29597).
T4 construct: 5 μL/well of 2×JAK1 JH1/JAK2 JH1/JAK3 JH1/TYK2 JH1 kinase solutions
T4 sequence (P29597 897-1176 limits assumed): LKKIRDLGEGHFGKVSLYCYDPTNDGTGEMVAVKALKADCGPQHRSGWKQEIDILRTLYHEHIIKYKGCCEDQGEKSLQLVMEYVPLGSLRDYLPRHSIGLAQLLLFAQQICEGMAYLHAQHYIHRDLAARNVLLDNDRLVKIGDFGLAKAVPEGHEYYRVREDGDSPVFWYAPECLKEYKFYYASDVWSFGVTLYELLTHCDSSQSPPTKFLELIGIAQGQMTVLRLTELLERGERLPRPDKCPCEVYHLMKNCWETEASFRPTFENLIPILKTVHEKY
In words: TYK2 JH1 kinase inhibition (HTRF). It is filed as biochemical. To be noted: read-out: Inhibition on kinase activity (IC50, μM) TYK2 JHI. As for the experimental part: as §1

pIC50: −log10 of the molar value. Read-outs that look alike come from different tables or passages of the source.

Chain of TYK2 JH2 pseudokinase (P29597 589-875 limits assumed): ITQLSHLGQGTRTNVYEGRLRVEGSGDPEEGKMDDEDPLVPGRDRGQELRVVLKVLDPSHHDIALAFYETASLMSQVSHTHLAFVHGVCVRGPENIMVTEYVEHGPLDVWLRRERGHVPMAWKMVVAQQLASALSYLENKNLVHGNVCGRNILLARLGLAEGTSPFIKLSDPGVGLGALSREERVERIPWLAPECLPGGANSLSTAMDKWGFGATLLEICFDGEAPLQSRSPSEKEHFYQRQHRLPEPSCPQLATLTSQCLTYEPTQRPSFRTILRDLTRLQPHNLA
T1 sequence (P23458 875-1153 limits assumed): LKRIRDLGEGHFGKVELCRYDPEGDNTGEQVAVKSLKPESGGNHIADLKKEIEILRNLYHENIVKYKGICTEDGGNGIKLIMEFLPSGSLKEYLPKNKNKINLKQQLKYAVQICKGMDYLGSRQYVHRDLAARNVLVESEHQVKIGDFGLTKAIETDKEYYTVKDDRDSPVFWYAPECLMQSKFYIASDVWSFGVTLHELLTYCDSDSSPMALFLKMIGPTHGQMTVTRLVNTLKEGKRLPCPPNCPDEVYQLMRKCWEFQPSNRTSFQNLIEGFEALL

For the molecule BMS-986165 [reference compound], the pIC50 in experiment [1] is 6.39.
In experiment [2], `CCONC(=O)c1nnc(NC(=O)C2CC2)cc1Nc1cccc(-c2ncn(CCF)n2)c1OC` [Compound 4, 6-(Cyclopropylcarboxamido)-N-ethoxy-4-((3-(1-(2-fluoroethyl)-1H-1,2,4-triazol-3-yl)-2-methoxyphenyl)amino)pyridazine-3-carboxamide] had a pIC50 of 9.74.
Usually IC50 stands for the midpoint of a concentration-inhibition curve. For `CCONC(=O)c1nnc(NC(=O)C2CC2)cc1Nc1cccc(-c2ncn(CCOC)n2)c1OC` [Compound 2, 6-(Cyclopropylcarboxamido)-N-ethoxy-4-((2-methoxy-3-(1-(2-methoxyethyl)-1H-1,2,4-triazol-3-yl)phenyl)amino)pyridazine-3-carboxamide], the pIC50 is 9.72 in experiment [2] and under 4.52 in experiment [1] (20 min). For the same molecule, the IC50 in experiment [3], in experiment [4], in experiment [5] and in experiment [6] was over 10 µM throughout.
For the molecule `CCONC(=O)c1nnc(NC(=O)C2CC2)cc1Nc1cccc(-c2ncn(CCC(=O)O)n2)c1OC` [Compound 8, 3-(3-(3-((6-(Cyclopropylcarboxamido)-3-(ethoxycarbamoyl)pyridazine-4-yl)amino)-2-methoxyphenyl)-1H-1,2,4-triazol-1-yl)propanoic acid], the pIC50 in experiment [2] is 9.54.
As for `CCONC(=O)c1nnc(NC(=O)C2CC2)cc1Nc1cccc(-c2ncn(CCCC(=O)O)n2)c1OC` [Compound 9, 4-(3-(3-((6-(Cyclopropylcarboxamido)-3-(ethoxycarbamoyl)pyridazine-4-yl)amino)-2-methoxyphenyl)-1H-1,2,4-triazol-1-yl)butanoic acid], the pIC50 in experiment [2] was 9.38.
As to `CCONC(=O)c1nnc(NC(=O)C2CC2)cc1Nc1cccc(-c2nc[nH]n2)c1OC` [Compound 1, 6-(Cyclopropylcarboxamido)-N-ethoxy-4-((2-methoxy-3-(1H-1,2,4-triazol-3-yl)phenyl)amino)pyridazine-3-carboxamide], the pIC50 in experiment [2] was 9.68; in experiment [1] (20 min), under 4.52. Besides, the IC50 in experiment [3], in experiment [4], in experiment [5] and in experiment [6] was over 10 µM each time.
Consider `CCONC(=O)c1nnc(NC(=O)C2CC2)cc1Nc1cccc(-c2ncn(CC(=O)O)n2)c1OC` [Compound 7, 2-(3-(3-((6-(Cyclopropylcarboxamido)-3-(ethoxycarbamoyl)pyridazine-4-yl)amino)-2-methoxyphenyl)-1H-1,2,4-triazol-1-yl)acetic acid], for which the pIC50 in experiment [2] is 9.54.
In experiment [2], `CCONC(=O)c1nnc(NC(=O)C2CC2)cc1Nc1cccc(-c2ncn(CCO)n2)c1OC` [Compound 10, 6-(Cyclopropylcarboxamide)-N-ethoxy-4-((3-(1-(2-hydroxyethyl)-1H-1,2,4-triazol-3-yl)-2-methoxyphenyl)amino)pyridazine-3-carboxamide] had a pIC50 of 9.55.
For `CCONC(=O)c1nnc(NC(=O)C2CC2)cc1Nc1cccc(-c2ncn(CC(F)F)n2)c1OC` [Compound 5, 6-(Cyclopropylcarboxamido)-4-((3-(1-(2,2-difluoroethyl)-1H-1,2,4-triazol-3-yl)-2-methoxyphenyl)amino)-N-ethoxypyridazine-3-carboxamide], the pIC50 in experiment [2] was 9.59.
